pIC50: −log10 of the molar value. Structures can show the parent of a compound that is named as a salt.
Assays:
[1] = target: T1, human TYK2 kinase domain (JH1) (Homo sapiens, UniProt P29597); test: JH1 biochemical assay for TYK2 (ADP-Glo kinase assay, recombinant JH1 catalytic domain, JAK3-974 peptide, 10 μM ATP)
T1 construct: recombinantly generated catalytic kinase (also known as JH1) domain of human JAK1, JAK2, JAK3 and TYK2
T1 sequence (P29597 897-1176 limits assumed): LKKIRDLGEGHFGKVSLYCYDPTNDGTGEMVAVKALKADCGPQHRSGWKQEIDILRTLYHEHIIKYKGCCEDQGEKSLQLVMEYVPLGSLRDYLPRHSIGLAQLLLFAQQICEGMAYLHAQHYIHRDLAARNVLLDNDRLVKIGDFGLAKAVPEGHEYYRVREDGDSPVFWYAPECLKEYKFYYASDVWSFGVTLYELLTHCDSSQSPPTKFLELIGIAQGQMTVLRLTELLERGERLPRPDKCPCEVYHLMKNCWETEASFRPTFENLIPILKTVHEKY
How it was run: (§1)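 Compounds were titrated in 11 points of 3-fold dilution starting at 10 μM or 1 μM. Enzyme (JAK1 4 nM, JAK2 0.2 nM, JAK3 0.3 nM, TYK2 2 nM) and 50 μM peptide reacted for 100 minutes, followed by ADP-to-luminescence detection; IC50 by 4-parameter fit.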

[2] = target: T2, human JAK1 kinase domain (JH1) (Homo sapiens, UniProt P23458); test: JH1 biochemical assay for JAK1 (ADP-Glo kinase assay, recombinant JH1 catalytic domain, JAK3-342 peptide, 35 μM ATP)
T2 construct: recombinantly generated catalytic kinase (also known as JH1) domain of human JAK1, JAK2, JAK3 and TYK2
How it was run: as §1

[3] = target: T3, human JAK2 kinase domain (JH1) (Homo sapiens, UniProt O60674); test: JH1 biochemical assay for JAK2 (ADP-Glo kinase assay, recombinant JH1 catalytic domain, JAK3-974 peptide, 15 μM ATP)
T3 construct: recombinantly generated catalytic kinase (also known as JH1) domain of human JAK1, JAK2, JAK3 and TYK2
How it was run: as §1

[4] = target: T4, human JAK3 kinase domain (JH1) (Homo sapiens, UniProt P52333); test: JH1 biochemical assay for JAK3 (ADP-Glo kinase assay, recombinant JH1 catalytic domain, JAK3-974 peptide, 4 μM ATP)
T4 construct: recombinantly generated catalytic kinase (also known as JH1) domain of human JAK1, JAK2, JAK3 and TYK2
How it was run: as §1

[5] = target: Tyk2 kinase activity on STAT4 in NK92 cells (Homo sapiens, UniProt P29597); test: pSTAT4 cell assay (MSD; NK92 cells, 30 ng/mL IL2 stimulation); type: cell-based; details: 30 ng/mL IL2, 15 minutes
How it was run: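 NK92, serum-starved; cpd 1 hr, 10-pt 4-fold from 10 μM; IL2 30 ng/mL 15 min; lyse; MSD with anti-STAT4 Abs; IC50 by 4-PL fit.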

[6] = target: JAK2 kinase activity on STAT5 in TF1 cells (Homo sapiens, UniProt O60674); test: pSTAT5 cell assay (MSD; TF1 cells, 30 ng/mL IL-3 stimulation); type: cell-based; details: 30 ng/mL IL-3, 15 minutes
How it was run: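 Serum-starved TF1 cells with native JAK2/STAT5 were pretreated 1 h with compound (10-point four-fold dilutions from 10 μM), then stimulated 15 min with 30 ng/mL IL-3. pSTAT5 in lysates quantified by MSD immunoassay; normalized percent activity fitted to a 4-parameter logistic curve for IC50.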

[7] = target: JAK1 kinase activity on STAT3 in TF1 cells (Homo sapiens, UniProt P23458); test: pSTAT3 cell assay (MSD; TF1 cells, 30 ng/mL IL-6 stimulation); type: cell-based; details: 30 ng/mL IL-6, 15 minutes
How it was run: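 Serum-starved TF1 cells with endogenous JAK1/STAT3 were pretreated 1 h with compound in a 10-point four-fold dilution series from 10 μM, then stimulated with 30 ng/mL IL-6 for 15 min. pSTAT3 in lysates was quantified by MSD immunoassay, and IC50 came from 4-parameter logistic fits.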

Sequence of Tyk2 kinase activity on STAT4 in NK92 cells (P29597 whole entry): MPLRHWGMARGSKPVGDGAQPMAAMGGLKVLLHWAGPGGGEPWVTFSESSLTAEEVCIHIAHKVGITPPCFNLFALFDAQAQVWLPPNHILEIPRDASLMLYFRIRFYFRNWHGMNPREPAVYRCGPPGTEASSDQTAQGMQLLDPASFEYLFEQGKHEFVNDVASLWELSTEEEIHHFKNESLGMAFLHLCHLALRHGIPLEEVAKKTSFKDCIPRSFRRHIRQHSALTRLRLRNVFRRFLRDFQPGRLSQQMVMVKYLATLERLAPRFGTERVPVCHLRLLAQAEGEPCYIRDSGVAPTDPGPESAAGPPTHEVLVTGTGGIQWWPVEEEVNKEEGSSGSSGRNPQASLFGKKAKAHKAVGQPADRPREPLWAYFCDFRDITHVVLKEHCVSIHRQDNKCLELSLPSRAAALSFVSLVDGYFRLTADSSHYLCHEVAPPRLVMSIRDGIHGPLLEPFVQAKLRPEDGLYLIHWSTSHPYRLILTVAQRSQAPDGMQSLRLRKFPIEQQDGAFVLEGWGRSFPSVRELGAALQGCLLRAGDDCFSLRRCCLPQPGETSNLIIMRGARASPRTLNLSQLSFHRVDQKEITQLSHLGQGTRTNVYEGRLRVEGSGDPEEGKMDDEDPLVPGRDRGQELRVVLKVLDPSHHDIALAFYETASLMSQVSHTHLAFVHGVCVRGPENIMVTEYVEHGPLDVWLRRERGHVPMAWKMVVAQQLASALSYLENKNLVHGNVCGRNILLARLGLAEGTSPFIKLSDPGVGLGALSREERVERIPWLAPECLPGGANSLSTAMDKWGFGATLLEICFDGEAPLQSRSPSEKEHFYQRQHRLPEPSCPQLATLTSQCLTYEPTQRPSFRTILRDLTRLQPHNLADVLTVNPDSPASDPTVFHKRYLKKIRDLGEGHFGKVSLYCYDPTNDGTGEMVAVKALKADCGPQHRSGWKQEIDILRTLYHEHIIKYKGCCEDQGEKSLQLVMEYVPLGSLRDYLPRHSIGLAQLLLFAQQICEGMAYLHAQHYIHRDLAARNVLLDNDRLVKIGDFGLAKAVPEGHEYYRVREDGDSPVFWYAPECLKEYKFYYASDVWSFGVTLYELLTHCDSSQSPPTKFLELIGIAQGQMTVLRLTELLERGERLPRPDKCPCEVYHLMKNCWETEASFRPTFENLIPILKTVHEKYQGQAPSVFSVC
T2 sequence (P23458 875-1153 limits assumed): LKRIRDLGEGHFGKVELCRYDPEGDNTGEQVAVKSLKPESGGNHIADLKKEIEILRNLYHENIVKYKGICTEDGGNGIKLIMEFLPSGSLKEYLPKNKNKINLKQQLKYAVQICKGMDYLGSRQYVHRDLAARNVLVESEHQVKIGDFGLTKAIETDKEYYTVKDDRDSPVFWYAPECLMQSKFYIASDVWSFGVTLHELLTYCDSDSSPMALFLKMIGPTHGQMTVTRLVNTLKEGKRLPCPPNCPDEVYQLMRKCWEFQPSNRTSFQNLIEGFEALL
Sequence of JAK1 kinase activity on STAT3 in TF1 cells (P23458 whole entry): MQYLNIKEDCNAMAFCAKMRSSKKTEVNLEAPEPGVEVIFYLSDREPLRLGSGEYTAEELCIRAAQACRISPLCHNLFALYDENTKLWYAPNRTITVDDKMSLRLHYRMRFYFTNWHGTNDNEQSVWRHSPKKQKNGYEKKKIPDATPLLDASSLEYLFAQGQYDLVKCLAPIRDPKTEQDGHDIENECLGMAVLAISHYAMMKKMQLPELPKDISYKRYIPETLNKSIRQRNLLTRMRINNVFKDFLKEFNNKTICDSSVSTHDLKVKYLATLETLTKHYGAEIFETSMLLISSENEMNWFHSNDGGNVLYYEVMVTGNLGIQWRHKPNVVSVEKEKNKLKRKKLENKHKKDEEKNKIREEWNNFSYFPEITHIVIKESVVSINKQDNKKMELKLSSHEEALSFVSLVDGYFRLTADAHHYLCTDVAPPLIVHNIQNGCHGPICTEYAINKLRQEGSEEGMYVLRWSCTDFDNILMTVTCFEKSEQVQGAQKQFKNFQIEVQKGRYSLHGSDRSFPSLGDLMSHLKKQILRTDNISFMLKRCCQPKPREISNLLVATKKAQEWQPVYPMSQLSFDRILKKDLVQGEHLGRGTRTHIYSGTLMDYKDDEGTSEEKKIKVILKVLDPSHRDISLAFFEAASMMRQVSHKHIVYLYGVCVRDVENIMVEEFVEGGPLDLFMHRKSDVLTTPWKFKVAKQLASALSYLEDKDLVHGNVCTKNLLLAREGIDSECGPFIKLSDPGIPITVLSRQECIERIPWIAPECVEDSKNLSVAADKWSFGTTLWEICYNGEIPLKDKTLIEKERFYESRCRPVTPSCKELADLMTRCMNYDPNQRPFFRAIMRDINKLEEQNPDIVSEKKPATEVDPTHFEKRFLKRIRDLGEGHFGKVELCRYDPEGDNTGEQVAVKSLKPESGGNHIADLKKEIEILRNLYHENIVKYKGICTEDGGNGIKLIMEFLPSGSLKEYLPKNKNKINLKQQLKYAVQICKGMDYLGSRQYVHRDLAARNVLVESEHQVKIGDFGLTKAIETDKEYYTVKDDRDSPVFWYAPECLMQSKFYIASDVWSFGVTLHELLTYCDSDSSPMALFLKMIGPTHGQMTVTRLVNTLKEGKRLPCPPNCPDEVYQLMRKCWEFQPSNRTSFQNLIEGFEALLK
Sequence of JAK2 kinase activity on STAT5 in TF1 cells (O60674 whole entry): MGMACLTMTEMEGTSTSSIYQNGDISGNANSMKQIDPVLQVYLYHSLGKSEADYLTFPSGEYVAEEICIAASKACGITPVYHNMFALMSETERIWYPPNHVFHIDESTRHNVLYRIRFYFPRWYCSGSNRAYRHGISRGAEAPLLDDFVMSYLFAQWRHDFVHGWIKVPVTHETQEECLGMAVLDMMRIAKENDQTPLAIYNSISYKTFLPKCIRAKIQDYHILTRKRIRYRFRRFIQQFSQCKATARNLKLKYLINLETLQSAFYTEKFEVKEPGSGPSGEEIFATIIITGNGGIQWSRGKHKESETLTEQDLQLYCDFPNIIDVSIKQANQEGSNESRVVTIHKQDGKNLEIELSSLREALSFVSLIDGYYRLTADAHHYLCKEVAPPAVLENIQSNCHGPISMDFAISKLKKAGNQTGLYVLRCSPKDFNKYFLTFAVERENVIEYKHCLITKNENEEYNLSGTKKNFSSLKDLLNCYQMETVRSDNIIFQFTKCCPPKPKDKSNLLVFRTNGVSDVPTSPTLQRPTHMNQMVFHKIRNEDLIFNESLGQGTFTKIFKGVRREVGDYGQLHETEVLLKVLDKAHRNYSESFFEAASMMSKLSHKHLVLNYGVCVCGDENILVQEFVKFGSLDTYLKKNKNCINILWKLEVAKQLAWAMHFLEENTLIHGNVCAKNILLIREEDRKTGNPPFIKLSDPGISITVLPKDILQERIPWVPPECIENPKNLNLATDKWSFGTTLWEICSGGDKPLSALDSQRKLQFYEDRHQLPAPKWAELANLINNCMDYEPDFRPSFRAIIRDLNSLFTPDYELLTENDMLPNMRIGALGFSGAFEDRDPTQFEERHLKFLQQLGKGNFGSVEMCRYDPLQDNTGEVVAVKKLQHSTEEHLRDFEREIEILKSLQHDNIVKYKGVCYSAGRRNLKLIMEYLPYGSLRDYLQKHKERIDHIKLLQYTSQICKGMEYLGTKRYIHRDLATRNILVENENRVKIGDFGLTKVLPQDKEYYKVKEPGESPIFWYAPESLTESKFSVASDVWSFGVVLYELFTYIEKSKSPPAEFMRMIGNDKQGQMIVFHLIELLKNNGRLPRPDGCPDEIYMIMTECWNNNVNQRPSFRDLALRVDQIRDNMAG
T4 sequence (P52333 822-1111 limits assumed): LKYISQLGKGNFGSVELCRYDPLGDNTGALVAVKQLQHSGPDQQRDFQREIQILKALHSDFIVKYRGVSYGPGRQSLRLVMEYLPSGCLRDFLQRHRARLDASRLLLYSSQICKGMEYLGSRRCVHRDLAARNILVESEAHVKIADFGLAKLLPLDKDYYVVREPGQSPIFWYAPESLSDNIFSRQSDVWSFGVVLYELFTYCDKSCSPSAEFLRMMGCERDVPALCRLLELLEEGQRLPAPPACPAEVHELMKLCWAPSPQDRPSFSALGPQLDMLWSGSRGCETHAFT
T3 sequence (O60674 849-1124 limits assumed): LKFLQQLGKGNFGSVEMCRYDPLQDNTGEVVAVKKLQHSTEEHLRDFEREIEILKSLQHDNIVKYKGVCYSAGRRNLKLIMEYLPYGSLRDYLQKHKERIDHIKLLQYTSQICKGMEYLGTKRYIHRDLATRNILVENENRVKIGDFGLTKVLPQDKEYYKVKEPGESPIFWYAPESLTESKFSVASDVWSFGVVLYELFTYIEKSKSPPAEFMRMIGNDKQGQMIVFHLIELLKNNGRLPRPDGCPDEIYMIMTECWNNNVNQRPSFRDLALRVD

| pIC50 ([1]; TYK2 JH1, ADP-Glo) | pIC50 ([2]; JAK1 JH1, ADP-Glo) | pIC50 ([3]; JAK2 JH1, ADP-Glo) | pIC50 ([4]; JAK3 JH1, ADP-Glo) | pIC50 [5] | pIC50 [6] | pIC50 [7] | pIC50 ([1]; JH1 kinase domain, ADP-Glo) | pIC50 ([2]; JH1 kinase domain, ADP-Glo) | pIC50 ([3]; JH1 kinase domain, ADP-Glo) | pIC50 ([4]; JH1 kinase domain, ADP-Glo) | Structure (SMILES) |
| --- | --- | --- | --- | --- | --- | --- | --- | --- | --- | --- | --- |
| 7.70 to 8.30 | 6.00 to 7.00 | 5.30 to 6.00 | 6.00 to 7.00 | < 7.00 | < 5.00 | 5.00 to 5.30 |  |  |  |  | C[C@@H]1CN(c2nn(-c3cnn(C)c3)c3cnccc23)C(=O)[C@]1(C#N)C1CC1 [Example 275, (3R,4S)-3-cyclopropyl-4-methyl-1-(1-(1-methyl-1H-pyrazol-4-yl)-1H-pyrazolo[3,4-c]pyridin-3-yl)-2-oxopyrrolidine-3-carbonitrile] |
|  |  |  |  | < 7.00 | < 5.00 | 5.00 to 5.30 | 7.70 to 8.30 | 6.00 to 7.00 | 6.00 to 7.00 | 6.00 to 7.00 | C[C@@H]1CN(c2ccnn3cc(-c4ccc(S(C)(=O)=O)nc4)cc23)C(=O)[C@]1(C#N)C1CC1 [Example 52, (3R,4S)-3-cyclopropyl-4-methyl-1-(6-(6-(methylsulfonyl)pyridin-3-yl)pyrrolo[1,2-b]pyridazin-4-yl)-2-oxopyrrolidine-3-carbonitrile] |
|  |  |  |  | 7.30 to 7.70 | 6.00 to 7.00 | 6.00 to 7.00 | > 8.30 | > 7.00 | > 7.00 | > 7.00 | Cn1cc(-c2cc3c(N4CC[C@@](C#N)(C5CC5)C4=O)ccnc3[nH]2)cn1 [Example 4, (S)-3-cyclopropyl-1-(2-(1-methyl-1H-pyrazol-4-yl)-1H-pyrrolo[2,3-b]pyridin-4-yl)-2-oxopyrrolidine-3-carbonitrile] |
| > 8.30 | > 7.00 | > 7.00 | > 7.00 | 7.30 to 7.70 | 6.00 to 7.00 | 6.00 to 7.00 |  |  |  |  | C[C@@H]1CN(c2nc(-c3cnn([C@H]4C[C@@H](C#N)C4)c3)cn3ncc(F)c23)C(=O)[C@]1(C#N)C1CC1 [Example 292, (3R,4S)-1-(6-(1-((1s,3S)-3-cyanocyclobutyl)-1H-pyrazol-4-yl)-3-fluoropyrazolo[1,5-a]pyrazin-4-yl)-3-cyclopropyl-4-methyl-2-oxopyrrolidine-3-carbonitrile] |
|  |  |  |  | 7.30 to 7.70 | 5.00 to 5.30 | 6.00 to 7.00 | > 8.30 | > 7.00 | 6.00 to 7.00 | 6.00 to 7.00 | CC(=O)Nc1cc(-c2cc3c(N4C[C@@H](C)[C@@](C#N)(C5CC5)C4=O)ccnn3c2)ccn1 [Example 61, N-(4-(4-((3R,4S)-3-cyano-3-cyclopropyl-4-methyl-2-oxopyrrolidin-1-yl)pyrrolo[1,2-b]pyridazin-6-yl)pyridin-2-yl)acetamide] |
| > 8.30 | > 7.00 | > 7.00 | > 7.00 | < 7.00 | 5.30 to 6.00 | 5.30 to 6.00 |  |  |  |  | C[C@@H]1CN(c2ccnn3cc(-c4cnn([C@H]5C[C@@](F)(C#N)C5)c4)cc23)C(=O)[C@]1(C#N)C1CC1 [Example 326, (3R,4S)-1-(6-(1-((1r,3R)-3-cyano-3-fluorocyclobutyl)-1H-pyrazol-4-yl)pyrrolo[1,2-b]pyridazin-4-yl)-3-cyclopropyl-4-methyl-2-oxopyrrolidine-3-carbonitrile] |
| > 8.30 | > 7.00 | > 7.00 | > 7.00 | 7.00 to 7.30 | 6.00 to 7.00 | 6.00 to 7.00 |  |  |  |  | C[C@@H]1CN(c2nc(-c3cnn([C@H]4C[C@@](C)(O)C4)c3)cn3ncc(F)c23)C(=O)[C@]1(C#N)C1CC1 [Example 301, (3R,4S)-3-cyclopropyl-1-(3-fluoro-6-(1-((1s,3 S)-3-hydroxy-3-methylcyclobutyl)-1H-pyrazol-4-yl)pyrazolo[1,5-a]pyrazin-4-yl)-4-methyl-2-oxopyrrolidine-3-carbonitrile] |
|  |  |  |  | < 7.00 | < 5.00 | 5.30 to 6.00 | 7.70 to 8.30 | 6.00 to 7.00 | 6.00 to 7.00 | 6.00 to 7.00 | C[C@@H]1CN(c2ccnn3cc(-c4ccc5ncnn5c4)cc23)C(=O)[C@]1(C#N)C1CC1 [Example 57, (3R,4S)-1-(6-([1,2,4]triazolo[1,5-a]pyridin-6-yl)pyrrolo[1,2-b]pyridazin-4-yl)-3-cyclopropyl-4-methyl-2-oxopyrrolidine-3-carbonitrile] |
|  |  |  |  | < 7.00 | < 5.00 | < 5.00 | 7.70 to 8.30 | 6.00 to 7.00 | 5.30 to 6.00 | 6.00 to 7.00 | C[C@@H]1CN(c2ccnn3cc(-c4cccc5cncn45)cc23)C(=O)[C@]1(C#N)C1CC1 [Example 128, (3R,4S)-3-cyclopropyl-1-(6-(imidazo[1,5-a]pyridin-5-yl)pyrrolo[1,2-b]pyridazin-4-yl)-4-methyl-2-oxopyrrolidine-3-carbonitrile trifluoroacetate] |
| > 8.30 | > 7.00 | > 7.00 | > 7.00 | 7.70 to 8.30 | > 7.00 | > 7.00 |  |  |  |  | C[C@@H]1CN(c2nc(-c3cnn(C4CC5(COC5)C4)c3)cn3nccc23)C(=O)[C@]1(C#N)C1CC1 [Example 289, (3R,4S)-1-(6-(1-(2-oxaspiro[3.3]heptan-6-yl)-1H-pyrazol-4-yl)pyrazolo[1,5-a]pyrazin-4-yl)-3-cyclopropyl-4-methyl-2-oxopyrrolidine-3-carbonitrile] |
|  |  |  |  | 7.00 to 7.30 | 5.00 to 5.30 | 6.00 to 7.00 | 7.70 to 8.30 | > 7.00 | 6.00 to 7.00 | 6.00 to 7.00 | C[C@@H]1CN(c2ccnn3cc(-c4ccc5cnn(C)c5c4)cc23)C(=O)[C@]1(C#N)C1CC1 [Example 68, (3R,4S)-3-cyclopropyl-4-methyl-1-(6-(1-methyl-1H-indazol-6-yl)pyrrolo[1,2-b]pyridazin-4-yl)-2-oxopyrrolidine-3-carbonitrile] |
|  |  |  |  | 7.00 to 7.30 | 5.00 to 5.30 | 5.30 to 6.00 | > 8.30 | > 7.00 | 6.00 to 7.00 | 6.00 to 7.00 | C[C@@H]1CN(c2ccnn3cc(-c4cn[nH]c4)cc23)C(=O)[C@]1(C#N)C1CC1 [Example 59, (3R,4S)-1-(6-(1H-pyrazol-4-yl)pyrrolo[1,2-b]pyridazin-4-yl)-3-cyclopropyl-4-methyl-2-oxopyrrolidine-3-carbonitrile trifluoroacetate] |
| > 8.30 | > 7.00 | > 7.00 | > 7.00 | 7.00 to 7.30 | 6.00 to 7.00 | 6.00 to 7.00 |  |  |  |  | C[C@@H]1CN(c2cc(-c3cnn(C4COC4)c3)cc3ncsc23)C(=O)[C@]1(C#N)C1CC1 [Example 348, (3R,4S)-3-cyclopropyl-4-methyl-1-(5-(1-(oxetan-3-yl)-1H-pyrazol-4-yl)benzo[d]thiazol-7-yl)-2-oxopyrrolidine-3-carbonitrile] |
|  |  |  |  | < 7.00 | < 5.00 | 5.30 to 6.00 | 7.70 to 8.30 | > 7.00 | 6.00 to 7.00 | > 7.00 | C[C@@H]1CN(c2nc(-c3ccc(C#N)nc3)cn3nccc23)C(=O)[C@]1(C#N)C1CC1 [Example 195, 5-(4-((3R,4S)-3-cyano-3-cyclopropyl-4-methyl-2-oxopyrrolidin-1-yl)pyrazolo[1,5-a]pyrazin-6-yl)picolinonitrile] |
| > 8.30 | 6.00 to 7.00 | 6.00 to 7.00 | 6.00 to 7.00 | < 7.00 | < 5.00 | 5.30 to 6.00 |  |  |  |  | CC(C)n1cc(-n2nc(N3C[C@@H](C)[C@@](C#N)(C4CC4)C3=O)c3ccncc32)cn1 [Example 280, (3R,4S)-3-cyclopropyl-1-(1-(1-isopropyl-1H-pyrazol-4-yl)-1H-pyrazolo[3,4-c]pyridin-3-yl)-4-methyl-2-oxopyrrolidine-3-carbonitrile] |
|  |  |  |  | < 7.00 | 5.00 to 5.30 | 5.30 to 6.00 | 7.70 to 8.30 | > 7.00 | 6.00 to 7.00 | > 7.00 | Cc1nc(C)c(-c2cn3nccc3c(N3C[C@@H](C)[C@@](C#N)(C4CC4)C3=O)n2)s1 [Example 209, (3R,4S)-3-cyclopropyl-1-(6-(2,4-dimethylthiazol-5-yl)pyrazolo[1,5-a]pyrazin-4-yl)-4-methyl-2-oxopyrrolidine-3-carbonitrile] |

From patent US20260297085A1, “1 H-PYRROLO[2,3-B]PYRIDIN-4-YL]-2-OXOPYRROLIDINE-3-CARBONITRILE DERIVATIVES AS TYROSINE KINASE 2 (TYK2) INHIBITORS FOR THE TREATMENT OF INFLAMMATORY DISEASES” (BIOGEN MA INC., priority 2023, published 2026)
